This data set relates to rodent carcinogenicity bioassays, tumor incidence. The experiment in a line: CCRIS carcinogenicity studies. An excerpt: The CCRIS database contains chemical records with carcinogenicity, mutagenicity, tumor promotion, and tumor inhibition test results. It was developed by the National Cancer Institute (NCI). Data are derived from studies cited in primary journals, current awareness tools, NCI reports, and other sources. Test results have been reviewed by experts in carcinogenesis and mutagenesis.
CCRIS provides historical information from the years 1985 - 2011. It is no longer updated.
This is an archive assay for CCRIS carcinogenicity studies.

Results on 14 compounds are retold here after PubChem BioAssay AID1259411 (Chemical Carcinogenesis Research Information System (CCRIS), 2018).

The source made the active and inactive calls. No rule for the calls is given here.

Consider `CC(O)CNC(=O)N(CCCl)N=O` (stereo not given), for which the carcinogen call is “inactive; negative” (Species: RAT, Strain/Sex: F344/FEMALE, Route: ORAL, Dose: 0, 18 MG/L IN DRINKING WATER 5 D/WK FOR 30 WK (STUDY DURATION: LIFETIME)) and “active; positive” (Species: RAT, Strain/Sex: F344/MALE, Route: ORAL, Dose: 0, 18 MG/L IN DRINKING WATER 5 D/WK FOR 30 WK (STUDY DURATION: LIFETIME), Tumor Site: Type of Lesion: LIVER: TUMOR, LUNG: TUMOR).
On to `CCCCCCCCCCCCc1ccccc1`, for which the carcinogen call (Species: MOUSE, Strain/Sex: HR/HR OSLO/MALE, FEMALE, Route: DERMAL, Dose: 0, 16, 80% IN ACETONE 2/WK FOR 78 WK (STUDY DURATION: 80 WK), Dose: 0, 16, 80% IN ACETONE 2/WK FOR 78 WK (STUDY DURATION: 80 WK), Tumor Site: Type of Lesion: SKIN: TUMOR) was “active; positive”.
Regarding `CCCN(CCC)C(=O)SCC`, the carcinogen call by setting is: (Species: Mouse, Strain/Sex: Crl:CD-1/Female (60/Group), Route: Oral, Dose: 0, 200, 600, 1800 ppm in diet for 73 wks, study duration 73 wks, Dose: 0, 200, 600, 1800 ppm in diet for 73 wks, study duration 73 wks) “inactive; negative”; (Species: Mouse, Strain/Sex: Crl:CD-1/Male (60/Group), Route: Oral, Dose: 0, 200, 600, 1800 ppm in diet for 73 wks, study duration 73 wks, Dose: 0, 200, 600, 1800 ppm in diet for 73 wks, study duration 73 wks) “inactive; negative”; (Species: Rat, Strain/Sex: Crl:CD (SD) BR/Female (90/Group), Route: Oral, Dose: 0, 9, 18, 36, 72 mg/kg/day in diet for 2 yr, study duration 2 yr, Dose: 0, 9, 18, 36, 72 mg/kg/day in diet for 2 yr, study duration 2 yr) “inactive; negative”; (Species: Rat, Strain/Sex: Crl:CD (SD) BR/Male (90/Group), Route: Oral, Dose: 0, 9, 18, 36, 72 mg/kg/day in diet for 2 yr, study duration 2 yr, Dose: 0, 9, 18, 36, 72 mg/kg/day in diet for 2 yr, study duration 2 yr) “inactive; negative”.
`COc1cc2c(c3oc(=O)c4c(c13)CCC4=O)[C@@H]1CCO[C@@H]1O2`: the carcinogen call reads like this: (Species: HUMAN, Route: ORAL, Tumor Site: Type of Lesion: LIVER) “active; positive”; (Species: RAT, Route: ORAL, Tumor Site: Type of Lesion: LIVER) “active; positive”.
As for `CC(C)NCC(O)c1ccc2ccccc2c1` (stereo not given), where the note is “Species: MOUSE, Route: ORAL, Tumor Site: Type of Lesion: THYROID GLAND”, the carcinogen call was “active; positive”.
Turning to `Nc1ccc([N+](=O)[O-])cc1`, the carcinogen call is “inactive; negative” (Species: MOUSE, Strain/Sex: B6C3F1/FEMALE, Route: GAVAGE, Dose: 0, 3, 30, 100 MG/KG IN CORN OIL 5 D/WK FOR 103 WK (STUDY DURATION: 104 WK), Dose: 0, 3, 30, 100 MG/KG IN CORN OIL 5 D/WK FOR 103 WK (STUDY DURATION: 104 WK)); “equivocal” (Species: MOUSE, Strain/Sex: B6C3F1/MALE, Route: GAVAGE, Dose: 0, 3, 30, 100 MG/KG IN CORN OIL 5 D/WK FOR 103 WK (STUDY DURATION: 104 WK), Dose: 0, 3, 30, 100 MG/KG IN CORN OIL 5 D/WK FOR 103 WK (STUDY DURATION: 104 WK), Tumor Site: Type of Lesion: LIVER: HEMANGIOSARCOMA, ALL ORGANS: HEMANGIOMA OR HEMANGIOSARCOMA); “inactive; negative” (Species: RAT, Strain/Sex: STRAIN CD/MALE, FEMALE, Route: GAVAGE, Dose: 0, 0.25, 1.5, 9 MG/KG IN CORN OIL 1/D 7 D/WK FOR 24 MO (STUDY DURATION: 24 MO), Dose: 0, 0.25, 1.5, 9 MG/KG IN CORN OIL 1/D 7 D/WK FOR 24 MO (STUDY DURATION: 24 MO)).
With `O=[N+]([O-])c1ccc2ccc3c4ccccc4cc4ccc1c2c43`, the carcinogen call is, setting by setting: (Species: MOUSE, Strain/Sex: B6C3F1/MALE, Route: INTRAPERITONEAL, Dose: 0, 400 NMOL IN 35 µL DMSO ON DAYS 1 (1/7 TOTAL DOSE), 8 (2/7 TOTAL DOSE), AND 15 (4/7 TOTAL DOSE) AFTER BIRTH (STUDY DUR) “inactive; negative”; (Species: RAT, Strain/Sex: F344/MALE, Route: SUBCUTANEOUS, Dose: 0, 500, 1000 UG SUSPENDED IN BEESWAX/TRICAPRYLIN (1:1) ONCE (STUDY DURATION: LIFETIME), Dose: 0, 500, 1000 UG SUSPENDED IN BEESWAX/TRICAPRYLIN (1:1) ONCE (STUDY DURATION: LIFETIME)) “inactive; negative”.
As to `C/C=C/Cl`, the carcinogen call (Species: MOUSE, Strain/Sex: ICR/FEMALE, Route: GAVAGE, Dose: 1.0 MG IN 0.1 ML TRIOCTANOIN 1/WK, Tumor Site: Type of Lesion: FORESTOMACH: SQUAMOUS CELL CARCINOMA) was “active; positive”.
`C=CCO`: the carcinogen call is “inactive; negative” (Species: HAMSTER, Strain/Sex: SYRIAN/MALE, Route: GAVAGE, Dose: 0, 2 MG/WK FOR 60 WK (STUDY DURATION: 92 WK)); “inactive; negative” (Species: RAT, Strain/Sex: F344/FEMALE, Route: ORAL, Dose: 0, 300 MG/L IN DRINKING WATER 5 D/WK FOR 100 WK (STUDY DURATION: 130 WK)); “inactive; negative” (Species: RAT, Strain/Sex: F344/MALE, Route: ORAL, Dose: 0, 300 MG/L IN DRINKING WATER 5 D/WK FOR 100 WK (STUDY DURATION: 130 WK)).
Take `Cn1cc(OCC(O)CNC(C)(C)C)c2ccccc2c1=O` (stereo not given): the carcinogen call by setting is: (Species: MOUSE, Strain/Sex: CD-1/FEMALE, Route: GAVAGE, Dose: 0, 3, 10, 30 MG/KG/D FOR 80 WK IN WATER (STUDY DURATION: 80 WK), Dose: 0, 3, 10, 30 MG/KG/D FOR 80 WK IN WATER (STUDY DURATION: 80 WK)) “inactive; negative”; (Species: MOUSE, Strain/Sex: CD-1/MALE, Route: GAVAGE, Dose: 0, 3, 10, 30 MG/KG/D FOR 80 WK IN WATER (STUDY DURATION: 80 WK), Dose: 0, 3, 10, 30 MG/KG/D FOR 80 WK IN WATER (STUDY DURATION: 80 WK)) “inactive; negative”.
With `CC(C)COC(=O)c1ccc(O)cc1`, the carcinogen call (Species: MOUSE, Strain/Sex: ICR/FEMALE, Route: ORAL, Dose: 0, 0.15, 0.3, 0.6% IN DIET FOR 102 WK (STUDY DURATION: 106 WK), Dose: 0, 0.15, 0.3, 0.6% IN DIET FOR 102 WK (STUDY DURATION: 106 WK)) was “inactive; negative” and the carcinogen call (Species: MOUSE, Strain/Sex: ICR/MALE, Route: ORAL, Dose: 0, 0.15, 0.3, 0.6% IN DIET FOR 102 WK (STUDY DURATION: 106 WK), Dose: 0, 0.15, 0.3, 0.6% IN DIET FOR 102 WK (STUDY DURATION: 106 WK)) was “inactive; negative”.
`CC(CN1c2ccccc2Sc2ccccc21)N(C)C` (stereo not given): the carcinogen call (Species: MOUSE, Strain/Sex: B6C3F1/FEMALE, Route: GAVAGE, Dose: 0, 3.75, 7.5, 15 MG/KG IN WATER 1/D 5 D/WK FOR 103 WK (STUDY DURATION: 106 WK), Dose: 0, 3.75, 7.5, 15 MG/KG IN WATER 1/D 5 D/WK FOR 103 WK (STUDY DURATION: 106 WK)) is “inactive; negative”; the carcinogen call (Species: MOUSE, Strain/Sex: B6C3F1/MALE, Route: GAVAGE, Dose: 0, 11.25, 22.5, 45 MG/KG IN WATER 1/D 5 D/WK FOR 103 WK (STUDY DURATION: 106 WK), Dose: 0, 11.25, 22.5, 45 MG/KG IN WATER 1/D 5 D/WK FOR 103 WK (STUDY DURATION: 106 WK)) was “inactive; negative”; the carcinogen call (Species: RAT, Strain/Sex: F344/FEMALE, Route: GAVAGE, Dose: 0, 8.3, 16.6, 33.3 MG/KG IN WATER 1/D 5 D/WK FOR 103 WK (STUDY DURATION: 106 WK), Dose: 0, 8.3, 16.6, 33.3 MG/KG IN WATER 1/D 5 D/WK FOR 103 WK (STUDY DURATION: 106 WK)) was “inactive; negative”; the carcinogen call (Species: RAT, Strain/Sex: F344/MALE, Route: GAVAGE, Dose: 0, 8.3, 16.6, 33.3 MG/KG IN WATER 1/D 5 D/WK FOR 103 WK (STUDY DURATION: 106 WK), Dose: 0, 8.3, 16.6, 33.3 MG/KG IN WATER 1/D 5 D/WK FOR 103 WK (STUDY DURATION: 106 WK)) is “inactive; negative”.
On to `OCC(O)CCl` (stereo not given), for which the carcinogen call (Species: Rat, Strain/Sex: Sprague-Dawley/Female, Route: Oral, Dose: 0, 25, 100, 400 ppm in drinking water for 2 yr (Study duration: 104 wk), Dose: 0, 25, 100, 400 ppm in drinking water for 2 yr (Study duration: 104 wk), Tumor Site: Type of Lesion: Kidney: Renal tubule adenoma or carcinoma) is “active; positive” and the carcinogen call (Species: Rat, Strain/Sex: Sprague-Dawley/Male, Route: Oral, Dose: 0, 25, 100, 400 ppm in drinking water for 2 yr (Study duration: 100 wk), Dose: 0, 25, 100, 400 ppm in drinking water for 2 yr (Study duration: 100 wk), Tumor Site: Type of Lesion: Kidney: Renal tubule adenoma or carcinoma, Testes: Leydig cell tumor) was “active; positive”.
On to `C=CC1CC=CCC1` (stereo not given), for which the carcinogen call (Species: MOUSE, Strain/Sex: B6C3F1/FEMALE, Route: GAVAGE, Dose: 0, 200, 400 MG/KG IN CORN OIL 5 D/WK FOR 103 WK, Dose: 0, 200, 400 MG/KG IN CORN OIL 5 D/WK FOR 103 WK, Tumor Site: Type of Lesion: OVARIES: BENIGN MIXED TUMOR, GRANULOSA CELL TUMOR, GRANULOSA CELL TUMOR OR CARCINOMA) was “active; positive”.
